According to the NIST ThermoML archive (doi:10.1016/j.jct.2015.07.028):

Settings: for molar entropy: 101.33 kPa, Small (less than 1 g) adiabatic calorimetry; for vapor or sublimation pressure: Closed cell (Static) method; for Triple point temperature: Adiabatic calorimetry

C=CC(C)(C)O [2-methyl-3-buten-2-ol]
Settings | molar entropy [J/K/mol] | vapor or sublimation pressure [kPa]
5 K, Crystal 2 | 0.1073 | –
10 K, Crystal 2 | 0.901 | –
15 K, Crystal 2 | 2.701 | –
20 K, Crystal 2 | 5.385 | –
25 K, Crystal 2 | 8.631 | –
30 K, Crystal 2 | 12.21 | –
35 K, Crystal 2 | 15.96 | –
40 K, Crystal 2 | 19.77 | –
45 K, Crystal 2 | 23.58 | –
50 K, Crystal 2 | 27.38 | –
60 K, Crystal 2 | 34.85 | –
70 K, Crystal 2 | 42.16 | –
80 K, Crystal 2 | 49.35 | –
88.1 K, Crystal 1 | 57.03 | –
88.1 K, Crystal 2 | 55.1 | –
90 K, Crystal 1 | 58.35 | –
100 K, Crystal 1 | 65.19 | –
110 K, Crystal 1 | 71.91 | –
120 K, Crystal 1 | 78.52 | –
130 K, Crystal 1 | 85.1 | –
140 K, Crystal 1 | 91.7 | –
150 K, Crystal 1 | 98.37 | –
160 K, Crystal 1 | 105.2 | –
170 K, Crystal 1 | 112.2 | –
180 K, Crystal 1 | 119.4 | –
190 K, Crystal 1 | 126.8 | –
200 K, Crystal 1 | 134.3 | –
210 K, Crystal 1 | 141.9 | –
220 K, Crystal 1 | 149.7 | –
230 K, Crystal 1 | 157.5 | –
240 K, Crystal 1 | 165.4 | –
245.03 K, Crystal 1 | 169.4 | –
245.03 K, Liquid | 190.6 | –
250 K, Liquid | 194.6 | –
260 K, Liquid | 202.4 | –
270 K, Liquid | 210.3 | –
273.15 K, Liquid | 212.8 | –
279.12 K, Liquid | – | 0.7477
279.82 K, Liquid | – | 0.7934
280 K, Liquid | 218.2 | –
280.58 K, Liquid | – | 0.8399
280.94 K, Liquid | – | 0.8608
281.64 K, Liquid | – | 0.9104
283.31 K, Liquid | – | 1.026
283.94 K, Liquid | – | 1.075
285.82 K, Liquid | – | 1.23
286.31 K, Liquid | – | 1.271
288.03 K, Liquid | – | 1.447
288.63 K, Liquid | – | 1.504
290 K, Liquid | 226.1 | –
291.06 K, Liquid | – | 1.787
291.09 K, Liquid | – | 1.78
293.17 K, Liquid | – | 2.061
293.35 K, Liquid | – | 2.084
295.88 K, Liquid | – | 2.467
295.92 K, Liquid | – | 2.466
298.02 K, Liquid | – | 2.863
298.15 K, Liquid | 232.6 | –
298.84 K, Liquid | – | 2.995
300 K, Liquid | 234.1 | –
301.36 K, Liquid | – | 3.534
301.37 K, Liquid | – | 3.532
303.03 K, Liquid | – | 3.938
303.4 K, Liquid | – | 4.006
306.13 K, Liquid | – | 4.784
306.16 K, Liquid | – | 4.776
307.86 K, Liquid | – | 5.284
308.18 K, Liquid | – | 5.405
310 K, Liquid | 242 | –
311.01 K, Liquid | – | 6.393
311.02 K, Liquid | – | 6.405
312.7 K, Liquid | – | 7.049
313.18 K, Liquid | – | 7.252
313.25 K, Liquid | – | 7.27
315.8 K, Liquid | – | 8.467
315.81 K, Liquid | – | 8.457
315.98 K, Liquid | – | 8.484
318.16 K, Liquid | – | 9.605
320 K, Liquid | 250 | –
320.59 K, Liquid | – | 11.11
320.62 K, Liquid | – | 11.02
320.82 K, Liquid | – | 11.12
322.89 K, Liquid | – | 12.51
322.94 K, Liquid | – | 12.48
325.36 K, Liquid | – | 14.31
325.39 K, Liquid | – | 14.24
325.66 K, Liquid | – | 14.41
328.07 K, Liquid | – | 16.34
330 K, Liquid | 257.9 | –
340 K, Liquid | 265.7 | –
350 K, Liquid | 273.5 | –
360 K, Liquid | 281.1 | –
370 K, Liquid | 288.5 | –

Settings | Triple point temperature [K]
Crystal 1 | 245.03
Crystal 2 | 88.1
